Measurements taken from US20230286983A1 (4E Therapeutics, Inc., priority 2020, published 2023).

Columns and labels:
MNK2 = MNK2 (Homo sapiens, UniProt Q9HBH9); assay: MNK2 substrate phosphorylation assay; format: biochemical; conditions: recombinant human kinase
P-gp (human MDR1, ABCB1) = assay: MDCK-MDR1 permeability (blood brain barrier permeability); format: in vitro ADME, Canine; conditions: dog; for efflux ratio at 5 μM: MDCK-MDR1, 5 μM, read-out: Efflux ratio (ratio B-A/A-B); for Papp A→B at 5 μM: MDCK-MDR1, Apical to basolateral transport; for Papp A→B at 5 μM / Papp B→A at 5 μM: average of two experiments; for Papp B→A at 5 μM: MDCK-MDR1, Basolateral to apical transport
[1] = Liver microsome stability, human; format: in vitro ADME; conditions: liver microsomes; for half-life: read-out: Human liver microsomes t1/2
[2] = tested on: eIF4E phosphorylation at Serine 209 in the human embryonic kidney (HEK) 293 cell line; assay: eIF4E phosphorylation in HEK 293 cells (fluorescent plate reader); format: cell-based; conditions: eIF4E phosphorylation at Serine 209, 2 hours exposure; for IC50: Homo sapiens
Experimental: The ability of MNK inhibitors described herein to inhibit eIF4E phosphorylation at Serine 209 in the human embryonic kidney (HEK) 293 cell line was tested by exposing the cells to compound for 2 hours and then measuring eIF4E phosphorylation with a phosphorylation-specific antibody in a fluorescent plate reader. These experiments were done with HEK-293 cells plated on 96 well plates. Following treatment, cells were fixed with ice cold methanol for 10 min and then washed in 1× phosphate buffered saline (PBS) and the permeabilized with 0.02% Triton X-100 in 10% normal goat serum made up in PBS. Primary antibody was applied overnight at a concentration dilution of 1:2000 (p-eIF4E antibody from Cell Signaling ab76256). Following washing, cells were then exposed to secondary antibody conjugated to alexa-fluor 488 and then visualized on a Syngergy HTX plate reader. Fluorescence for p-eIF4E was measured and normalized to total DAPI fluorescence to determine the percentage of eIF4E phosphorylation in each well. Data were plotted in Graphpad Prism V8 to determine concentration-response effects and calculate IC50 values.

[3] = tested on: eIF4E phosphorylation at Serine 209 in the human osteosarcoma (U2OS) cell line; assay: eIF4E phosphorylation in U2OS cells (fluorescent plate reader); format: cell-based; conditions: eIF4E phosphorylation at Serine 209, 2 hours exposure; for IC50: Homo sapiens, U2OS
Experimental: The ability of MNK inhibitors described herein to inhibit eIF4E phosphorylation at Serine 209 in the human osteosarcoma (U2OS) cell line was tested by exposing the cells to compound for 2 hours and then measuring eIF4E phosphorylation with a phosphorylation-specific antibody in a fluorescent plate reader.

[4] = target: Cdc2-like kinase 4 (CLK4) (Homo sapiens, UniProt Q9HAZ1); assay: Off-target kinase screen CLK4; format: biochemical; conditions: 1 μM test compound
From the text: (§1) These kinases were chosen because they are the only known off-target hit kinases for eFT508. These assays were done using recombinant human kinases (CLK4, DRAK1 and PKG2) in a substrate phosphorylation assay. % activity remaining after MNK inhibitor treatment is indicated in Table 12.

[5] = target: T1, death-associated protein kinase-related apoptosis-inducing protein kinase 1 (DRAK1) (Homo sapiens, UniProt Q9UEE5); assay: Off-target kinase screen DRAK1; format: biochemical; conditions: 1 μM test compound
T1 sequence (Q9UEE5 1-414): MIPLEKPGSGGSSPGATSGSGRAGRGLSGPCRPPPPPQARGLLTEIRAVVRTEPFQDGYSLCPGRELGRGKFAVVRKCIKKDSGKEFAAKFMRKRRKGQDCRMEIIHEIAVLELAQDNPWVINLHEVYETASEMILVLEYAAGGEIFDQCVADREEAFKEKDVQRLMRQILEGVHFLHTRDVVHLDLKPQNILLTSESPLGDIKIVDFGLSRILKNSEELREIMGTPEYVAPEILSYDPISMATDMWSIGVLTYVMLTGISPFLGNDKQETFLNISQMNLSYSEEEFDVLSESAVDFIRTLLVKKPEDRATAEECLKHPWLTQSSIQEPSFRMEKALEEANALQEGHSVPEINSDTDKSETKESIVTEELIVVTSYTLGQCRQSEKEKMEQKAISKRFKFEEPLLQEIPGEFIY
From the text: as §1

[6] = tested on: eIF4E phosphorylation at Serine 209 in Karpas 299; assay: eIF4E phosphorylation in Karpas 299 cells (sandwich ELISA); format: cell-based; conditions: Homo sapiens, read-out: Karpas 299 cell IC50
Experimental: The ability of MNK inhibitors described herein to inhibit eIF4E phosphorylation at Serine 209 in Karpas 299, Human Non-Hodgkin's Ki-positive Large Cell Lymphoma cell line was tested by sandwich enzyme linked immune-absorbance assay.

[7] = Liver microsome stability, rat; format: in vitro ADME; conditions: Rat liver microsomes (#); for microsomal CLint: read-out: CLint rodent; for half-life: read-out: Rodent liver microsomes t1/2
[8] = target: T2, protein kinase G 2 (PKG2) (Homo sapiens, UniProt Q13237); assay: Off-target kinase screen PKG2; format: biochemical; conditions: 1 μM test compound
T2 sequence (Q13237 1-762): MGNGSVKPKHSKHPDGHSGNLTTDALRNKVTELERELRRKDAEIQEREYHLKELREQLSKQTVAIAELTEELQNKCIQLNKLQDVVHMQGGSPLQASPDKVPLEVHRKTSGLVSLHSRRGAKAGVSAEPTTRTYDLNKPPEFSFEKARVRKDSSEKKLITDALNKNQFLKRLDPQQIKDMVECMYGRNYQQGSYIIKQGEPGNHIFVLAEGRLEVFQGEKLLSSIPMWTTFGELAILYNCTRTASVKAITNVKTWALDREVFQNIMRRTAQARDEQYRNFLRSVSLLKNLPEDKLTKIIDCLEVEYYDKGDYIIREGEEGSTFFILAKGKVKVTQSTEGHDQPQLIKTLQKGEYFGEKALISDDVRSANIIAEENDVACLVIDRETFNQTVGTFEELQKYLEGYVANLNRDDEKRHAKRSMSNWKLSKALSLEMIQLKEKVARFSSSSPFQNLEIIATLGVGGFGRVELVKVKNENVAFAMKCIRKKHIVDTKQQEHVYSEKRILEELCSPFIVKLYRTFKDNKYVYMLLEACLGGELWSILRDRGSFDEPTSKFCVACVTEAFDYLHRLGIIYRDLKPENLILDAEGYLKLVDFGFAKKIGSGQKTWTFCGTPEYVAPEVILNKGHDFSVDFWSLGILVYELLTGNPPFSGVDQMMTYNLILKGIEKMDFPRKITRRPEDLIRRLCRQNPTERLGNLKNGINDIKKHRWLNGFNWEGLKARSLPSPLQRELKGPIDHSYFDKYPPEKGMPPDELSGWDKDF
From the text: as §1

MNK1 = MNK1 (Homo sapiens, UniProt Q9BUB5); assay: MNK1 substrate phosphorylation assay; format: biochemical; conditions: recombinant human kinase
[9] = Liver microsome stability, mouse; format: in vitro ADME; conditions: Mouse liver microsomes (*); for microsomal CLint: read-out: CLint rodent; for half-life: mouse, liver microsomes, Table 11a, read-out: Rodent liver microsomes t1/2

MNK1, sequence (Q9BUB5 whole entry): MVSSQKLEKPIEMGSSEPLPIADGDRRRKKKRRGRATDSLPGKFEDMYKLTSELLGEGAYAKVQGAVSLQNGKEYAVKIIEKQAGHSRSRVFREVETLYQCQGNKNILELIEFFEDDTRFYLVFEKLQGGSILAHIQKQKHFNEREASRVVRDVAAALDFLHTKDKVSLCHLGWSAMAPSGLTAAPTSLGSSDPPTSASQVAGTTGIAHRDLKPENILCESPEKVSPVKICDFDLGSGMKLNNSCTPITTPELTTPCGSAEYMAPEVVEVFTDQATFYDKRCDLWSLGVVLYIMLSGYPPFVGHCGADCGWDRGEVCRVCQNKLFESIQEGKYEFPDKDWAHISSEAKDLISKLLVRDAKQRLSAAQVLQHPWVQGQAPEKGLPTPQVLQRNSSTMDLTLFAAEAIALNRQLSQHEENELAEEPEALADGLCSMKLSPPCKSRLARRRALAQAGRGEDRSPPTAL
Cdc2-like kinase 4 (CLK4), sequence (Q9HAZ1 whole entry): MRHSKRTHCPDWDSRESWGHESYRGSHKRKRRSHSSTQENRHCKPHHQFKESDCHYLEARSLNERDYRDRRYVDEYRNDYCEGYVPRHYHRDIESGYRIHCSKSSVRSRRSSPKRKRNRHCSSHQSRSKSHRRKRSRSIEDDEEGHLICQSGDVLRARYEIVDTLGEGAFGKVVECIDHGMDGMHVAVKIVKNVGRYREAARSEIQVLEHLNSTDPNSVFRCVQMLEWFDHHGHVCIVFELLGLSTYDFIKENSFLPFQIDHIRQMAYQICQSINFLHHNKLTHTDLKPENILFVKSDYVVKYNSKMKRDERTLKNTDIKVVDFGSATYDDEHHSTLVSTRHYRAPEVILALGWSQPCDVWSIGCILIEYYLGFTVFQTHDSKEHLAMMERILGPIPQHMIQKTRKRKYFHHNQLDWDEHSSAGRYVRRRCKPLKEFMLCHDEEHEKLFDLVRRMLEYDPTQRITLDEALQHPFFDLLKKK
MNK2, sequence (Q9HBH9 whole entry): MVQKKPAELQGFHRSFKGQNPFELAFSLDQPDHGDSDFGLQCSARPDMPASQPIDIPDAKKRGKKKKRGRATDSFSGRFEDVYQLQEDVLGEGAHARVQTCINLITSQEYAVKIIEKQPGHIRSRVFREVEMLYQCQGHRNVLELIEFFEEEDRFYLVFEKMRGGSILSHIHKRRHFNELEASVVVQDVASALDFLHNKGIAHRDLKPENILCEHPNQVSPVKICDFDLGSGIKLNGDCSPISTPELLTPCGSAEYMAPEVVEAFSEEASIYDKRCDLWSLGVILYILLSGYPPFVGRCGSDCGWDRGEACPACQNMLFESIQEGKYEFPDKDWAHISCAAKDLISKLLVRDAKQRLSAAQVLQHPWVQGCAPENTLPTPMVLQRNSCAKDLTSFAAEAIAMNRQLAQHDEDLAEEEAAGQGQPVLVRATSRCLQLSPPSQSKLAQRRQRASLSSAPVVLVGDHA

Row | SMILES | IC50 (MNK2) | efflux ratio at 5 μM (P-gp (human MDR1, ABCB1)) | Papp A→B at 5 μM (P-gp (human MDR1, ABCB1)) | Papp B→A at 5 μM (P-gp (human MDR1, ABCB1)) | microsomal CLint [1] | half-life [1] | IC50 [3] | remaining activity at 1 µM [4] | IC50 [6] | microsomal CLint [7] | half-life [7] | remaining activity at 1 µM [8] | IC50 (MNK1) | U2OS cell IC50 [3] | IC50 ([2]; HEK293, 2 h) | remaining activity at 1 µM [5] | microsomal CLint [9] | half-life [9] | IC50 ([2]; HEK293) | HEK 293 cell IC50 [2]
1 | Cc1cc(Nc2cc(N)ncn2)c(=O)n2c1C(=O)NC21CCOCC1 [Compound 4ET-01-002, 6-((6-Aminopyrimidin-4-yl)amino)-8-methyl-2′,3′,5′,6′-tetrahydro-2H-spiro[imidazo[1,5-a]pyridine-3,4′-pyran]-1,5-dione] | 2.6 nM | 2.2 | 2.6 ×10⁻⁶ cm/s | 5.6 ×10⁻⁶ cm/s | 2.17 µL/min/mg | 10.7 h | 6.9 nM | 100% | 33 nM | 2.7 µL/min/mg | 8.57 h | 97% | 27.9 nM |  | 18.5 nM | 72% |  |  |  | 
2 | Cc1cc(Nc2cc(N)ncn2)c(=O)n2c1C(=O)NC21CCC(O)CC1 (stereo not drawn) [Compound 4ET-01-005, 6′-((6-Aminopyrimidin-4-yl)amino)-4-hydroxy-8′-methyl-2′H-spiro[cyclohexane-1,3′-imidazo[1,5-a]pyridine]-1′,5′-dione] |  | 2.7 | 0.2 ×10⁻⁶ cm/s | 0.6 ×10⁻⁶ cm/s | 3.6 µL/min/mg | 6.42 h | 8.2 nM | 63% | 26 nM |  |  | 100% | 9.8 nM |  |  | 41% | 3.53 µL/min/mg | 6.55 h | 8.2 nM | 
3 | Cc1cc(Nc2cc(NCCNS(C)(=O)=O)ncn2)c(=O)n2c1C(=O)NC21CCCC1 [Compound 4ET-03-013, N-(2-((6-((8′-methyl-1′,5′-dioxo-1′,5′-dihydro-2′H-spiro[cyclopentane-1,3′-imidazo[1,5-a]pyridin]-6′-yl)amino)pyrimidin-4-yl)amino)ethyl)methanesulfonamide] | 8 nM | 18.1 | 0.2 ×10⁻⁶ cm/s | 3.9 ×10⁻⁶ cm/s |  |  |  |  |  |  |  |  | 205 nM | inactive |  |  |  |  |  | inactive
4 | Cc1cc(Nc2cc(NC(=O)C3CC3)ncn2)c(=O)n2c1C(=O)NC21CCCC1 [Compound 4ET-03-017, N-(6-((8′-Methyl-1′,5′-dioxo-1′,5′-dihydro-2′H-spiro[cyclopentane-1,3′-imidazo[1,5-a]pyridin]-6′-yl)amino)pyrimidin-4-yl)cyclopropanecarboxamide] |  |  | 16.3 ×10⁻⁶ cm/s | 58.9 ×10⁻⁶ cm/s |  |  | 0.4 nM | 17% | 1 nM |  |  | 100% |  |  |  | 9% |  |  | 0.9 nM | 

Now from value to molecule, other results behind:

Row | IC50 (MNK2) | efflux ratio at 5 μM (P-gp (human MDR1, ABCB1)) | Papp A→B at 5 μM (P-gp (human MDR1, ABCB1)) | Papp B→A at 5 μM (P-gp (human MDR1, ABCB1)) | microsomal CLint [1] | half-life [1] | IC50 [3] | remaining activity at 1 µM [4] | IC50 [6] | microsomal CLint [7] | half-life [7] | remaining activity at 1 µM [8] | IC50 (MNK1) | U2OS cell IC50 [3] | SMILES | IC50 ([2]; HEK293, 2 h) | remaining activity at 1 µM [5] | microsomal CLint [9] | half-life [9] | IC50 ([2]; HEK293) | HEK 293 cell IC50 [2]
5 | 1.6 nM |  |  |  | 2.51 µL/min/mg | 9.2 h |  | 92% | 17 nM | 2.54 µL/min/mg | 9.1 h | 99% | 39.6 nM |  | Cc1cc(Nc2cc(NCCO)ncn2)c(=O)n2c1C(=O)NC21CCCCC1 [Compound 4ET-02-001, 6′-((6-((2-Hydroxyethyl)amino)pyrimidin-4-yl)amino)-8′-methyl-2′H-spiro[cyclohexane-1,3′-imidazo[1,5-a]pyridine]-1′,5′-dione] | 7.1 nM | 81% |  |  |  | 
6 | 2.1 nM | 30.2 | 0.3 ×10⁻⁶ cm/s | 7.6 ×10⁻⁶ cm/s | 1.25 µL/min/mg | 18.5 h | 30 nM | 81% |  |  |  | 100% | 61.7 nM |  | Cc1cc(Nc2cc(NCCNS(C)(=O)=O)ncn2)c(=O)n2c1C(=O)NC21CCCCC1 [Compound 4ET-02-004, N-(2-((6-((8′-methyl-1′,5′-dioxo-1′,5′-dihydro-2′H-spiro[cyclohexane-1,3′-imidazo[1,5-a]pyridin]-6′-yl)amino)pyrimidin-4-yl)amino)ethyl)methanesulfonamide] | 30.7 nM | 86% | 2.5 µL/min/mg | 9.25 h |  | 
7 | 1.8 nM | 3.8 | 15.5 ×10⁻⁶ cm/s | 58.6 ×10⁻⁶ cm/s | 0.77 µL/min/mg | 29.9 h | 5.1 nM |  | 6.4 nM | 4.84 µL/min/mg | 4.78 h |  | 20.5 nM |  | Cc1cc(Nc2cc(NC(=O)C(C)C)ncn2)c(=O)n2c1C(=O)NC21CCCC1 [Compound 4ET-03-005, N-(6-((8′-Methyl-1′,5′-dioxo-1′,5′-dihydro-2′H-spiro[cyclopentane-1,3′-imidazo[1,5-a]pyridin]-6′-yl)amino)pyrimidin-4-yl)isobutyramide] | 2.6 nM |  |  |  |  | 
8 | 1.4 nM | 10 | 0.9 ×10⁻⁶ cm/s | 8.7 ×10⁻⁶ cm/s | 2.73 µL/min/mg | 8.45 h | 2.4 nM | 14% | 3 nM | 3.18 µL/min/mg | 7.27 h | 100% | 19.1 nM |  | Cc1cc(Nc2cc(NC(=O)C3CC3)ncn2)c(=O)n2c1C(=O)NC21CCC(O)CC1 (stereo not drawn) [Compound 4ET-03-015, N-(6-((4-Hydroxy-8′-methyl-1′,5′-dioxo-1′,5′-dihydro-2′H-spiro[cyclohexane-1,3′-imidazo[1,5-a]pyridin]-6′-yl)amino)pyrimidin-4-yl)cyclopropanecarboxamide] | 2.7 nM | 16% |  |  |  | 
